Experiment: mn = molality of the nth substance listed, in mol/kg
Details: 350 kPa, Liquid, Extra sensitive DSC

N[C@H](CO)C(=O)O [(R)-(-)-serine] + O
apparent molar heat capacity [J/K/mol]
Details	m1 = 0.0151	m1 = 0.0301	m1 = 0.0501	m1 = 0.08	m1 = 0.1251	m1 = 0.2505	m1 = 0.35
278.15 K	54.5	55.7	56.5	58.3	60.7	66.74	71.19
283.15 K	75.2	76.1	76.8	78.4	80.6	85.06	89.13
288.15 K	91.1	92.2	92.8	94.4	96.3	100.09	103.68
293.15 K	104.3	105.4	106.1	107.6	109.2	112.47	115.73
298.15 K	114.8	116.1	116.8	118.3	119.8	122.69	125.65
303.15 K	123.8	125.6	126.3	127.5	128.8	131.45	134.16
308.15 K	132.3	133.5	134.1	135.4	136.6	138.97	141.5
313.15 K	139.7	140.5	141	142.1	143.3	145.58	147.86
318.15 K	145.3	146.2	146.7	147.9	149	151.1	153.28
323.15 K	150	151.2	151.8	153	154.1	156.06	158.13
328.15 K	155	156	156.5	157.5	158.6	160.5	162.4
333.15 K	159	160.2	160.7	161.7	162.6	164.4	166.3
338.15 K	163	163.7	164.2	165.2	166.2	167.9	169.76
343.15 K	166	167	167.4	168.3	169.2	170.9	172.7
348.15 K	169	170.1	170.4	171.1	172	173.7	175.4
353.15 K	171	172.2	172.6	173.6	174.4	176.1	177.8
358.15 K	174	174.3	174.9	175.8	176.7	178.3	180
363.15 K	176	176.2	176.7	177.7	178.5	180.2	181.8
368.15 K	177	177.8	178.2	179.2	180.1	181.7	183.4
373.15 K	178	179.3	179.6	180.5	181.4	183.1	184.7
378.15 K	180	180.4	180.7	181.6	182.5	184.2	185.8
383.15 K	181	181	181.4	182.4	183.3	185.2	186.8
388.15 K	181	182	182.1	183	184	186	187.4
393.15 K	182	182	182.5	183.5	184.4	186.5	187.9
